Laboratory results: patent publication US8415505B2, “2-methylene-5-substituted-methylenecyclopentanone derivatives and use thereof” (Shenyang Pharmaceutical University, priority 2008, dated 2013)
Where two headings read alike, the source gives them in different places.

Key:
[1] = system: Human breast cancer cells MDA-MB231; assay: In vitro antitumor activity test (MTT), MDA-MB231; type: cell-based; details: 4 days culture with drug, growth inhibition, read-out: IC50 (μmol/L) MDA-MB231
Description: (§1) In Vitro Antitumor Activity Test
(§2) Cells were taken out carefully from liquid nitrogen (Frozen pipes), and the cell freezing medium was thawed rapidly in water bath at 37° C. in order to rapidly pass the temperature range of 0˜5° C. within which the cell is easily damaged. Cell suspension was sucked with pipette gun and put it into centrifuge tubes under a sterile condition, then centrifuged for 3 min at 1300 r/min. The supernatant was gently discarded, and then added with a fresh medium to pipette and mix the cells. Finally, the cells were transferred into culture flasks and cultured in a carbon dioxide incubator. The medium was changed once after 24 h.
(§3) Human prostate cancer cells (DU145, PC-3) were cultured in RPMI1640 medium containing 10% fetal bovine serum inactivated by heating, 100 IU/mL penicillin, 100 μg/mL streptomycin and 1 mmol/L L-glutamine. Human breast cancer cells (T47D, MDA-MB231) were cultured in RPMI1640 medium containing 10% fetal bovine serum inactivated by heating, 5 μg/mL insulin, 100 IU/mL penicillin, 100 μg/mL streptomycin, and 1 mmol/L L-glutamine. Human breast cancer cells (MCF-7) were cultured in DMEM culture medium containing 10% fetal bovine serum inactivated by heating, 5 μg/mL insulin, 100 IU/mL penicillin, 100 μg/mL streptomycin and […] L-glutamine. Mouse Lewis lung carcinoma cells (LL/2) and mouse melanoma cells (B16F0) were cultured in DMEM culture medium containing 10% fetal bovine serum inactivated by heating, 4.5 g/L glucose, 1.5 g/L NaHCO3, 100 IU/mL penicillin, 100 μg/mL streptomycin and 4 mmol/L L-glutamine. All of the above cell lines were incubated in 37° C. incubator with 5% carbon dioxide saturated humidity
(§4) After 2-3 cycles of cell culture and passage after the cell thawing, the cells were stable and ready for the experiment. The flask bottom should be covered with cells in each cell passage.
(§5) Trypsin solution (0.25%) was applied to digest the cells off the flask bottom when the flask bottom was covered with cells. The digested cell solution was moved to the centrifuge tubes and culture medium was added to stop the digestion; centrifuged for 3 min at 1300 r/min conditions; gently discarded the supernatant, and then added 5 mL medium, pipetted and mixed the cells; added 10 μL of the cell suspension to the cell count plate to count; adjusted the cell concentration to 2×10^4/mL; added 100 μL cell suspension to all wells of the 96 well plate except A1 well which acts as a blank; and placed the 96 well plate in an incubator to culture 24 h and to make sure the cells growing and attached on the wells.
(§6) First formulated the medicine in 16 mmol/L of DMSO storage solution; then diluted the solution with ethanol to 1.6 mmol/L solution; then further diluted with cell culture medium to 32 μmol/L, 16 μmol/L, 8 μmol/L, 4 μmol/L, 2 μmol/L and 1 μmol/L, and added to 96 well plate; 100 μl drug solution were added to each well, thus the final drug concentrations of cells were 16 μmol/L, 8 μmol/L, 4 μmol/L, 2 μmol/L, 1 μmol/L, and 0.5 μmol/L; 3 parallel wells were set for each concentration and placed the 96 well plate was placed into an incubator to continuously culture for 4 days
(§7) Added to each well of the 96 well plate with 50 μL of MTT (2 mg/mL); discarded the MTT (tetrazolium) solution after 4 h incubation in an incubator, then added 200 μL of DMSO; shaking the 96 well plate in a magnetic shaker for 10 min to make sure that the reaction product of the living cells and the MTT, i.e. formazan, was fully dissolved; measured the absorbance value (OD) in microplate reader at the selected 570 nm wavelength, and recorded results. Using the OD values of the cells that were not added with drugs as control, the cell growth inhibition ratio at each test concentration was calculated by using the following formula. Herein, the cancer cell growth inhibition is expressed as the half of the growth inhibitory concentration (IG50 Value) (i.e., the tested drug concentration resulting in 50% cell growth inhibition). […]

[2] = system: Human breast cancer cells T47D; assay: In vitro antitumor activity test (MTT), T47D; type: cell-based; details: 4 days culture with drug, growth inhibition, read-out: IC50 (μmol/L) T47D
Description: as §1, §2, §3, §4, §5, §6, §7

[3] = system: Human breast cancer cells MCF-7; assay: In vitro antitumor activity test (MTT), MCF-7; type: cell-based; details: MCF7, 96 h, MCF-7 cells, 4 days culture with drug, growth inhibition, read-out: IC50 (μmol/L) MCF-7
Description: as §1
as §2, with “h. […]” for “h.”
(§8) After 2-3 cycles of cell culture and passage after the cell thawing, the cells were stable and ready for the experiment. […]
(§9) Added to each well of the 96 well plate with 50 μL of MTT (2 mg/mL); discarded the MTT (tetrazolium) solution after 4 h incubation in an incubator, then added 200 μL of DMSO; shaking the 96 well plate in a magnetic shaker for 10 min to make sure that the reaction product of the living cells and the MTT, i.e. formazan, was fully dissolved; measured the absorbance value (OD) in microplate reader at the selected 570 nm wavelength, and recorded results. […]

[4] = system: Human prostate cancer cells PC-3; assay: In vitro antitumor activity test (MTT), PC-3; type: cell-based; details: 96 h, PC-3 cells, 4 days culture with drug, growth inhibition, read-out: IC50 (μmol/L) PC-3
Description: as §1
as §2, with “h. […]” for “h.”
as §8, §9

[5] = system: mouse melanoma cells (B16F0); assay: In vitro antitumor activity test (MTT), B16F0; type: cell-based; details: B16F0, 96 h, B16FD cells (head), 4 days culture with drug, growth inhibition, read-out: IC50 (μmol/L) B16FD
Description: as §1
as §2, with “h. […]” for “h.”
as §8, §9

[6] = system: Human prostate cancer cells DU145; assay: In vitro antitumor activity test (MTT), DU145; type: cell-based; details: DU-145, 96 h, 4 days culture with drug, growth inhibition, read-out: IC50 (μmol/L) DU145
Description: as §1
as §2, with “h. […]” for “h.”
as §8, §9

[7] = system: Mouse Lewis lung carcinoma cells (LL/2); assay: In vitro antitumor activity test (MTT), LL/2; type: cell-based; details: 96 h, LL/2 cells, 4 days culture with drug, growth inhibition, read-out: IC50 (μmol/L) LL/2
Description: as §1
as §2, with “h. […]” for “h.”
as §8, §9

Acute toxicity test = details: both sexes, mouse, in vivo, ip; Kunming mice, intraperitoneal injection, observed one week after administration, weighted regression method
Description: Animals: healthy Kunming mice, half male and half female, weighed 18-22 g. Animals were provided from Experimental Animal Center of Shenyang Pharmaceutical University. Certificate of Conformity: Real co-Zi Liao No. 033
Name of tested drugs: Example 13, Example 14
Drug preparation: Suspension formulated with 0.2% polysorbate 80 (Tween-80). Dosage to subject is expressed as mg/kg.
Route of administration: Intraperitoneal injection; injection volume was 0.1 ml/10 g, with one time multi-dose administration.
Test cycle and measurement: Observed one week after the administration; recorded toxic reactions in mice daily during observation, with the death of mice as the main indicator. Half lethal dose (LD50, mg/kg) of the administration of compound after a week can be obtained according to weighted regression method.

| IC50 ([1]; Homo sapiens, MDA-MB-231, 96 h) [µmol/L] | IC50 ([2]; Homo sapiens, 96 h) [µmol/L] | Structure (SMILES) | further results |
| --- | --- | --- | --- |
| 5.54 | 5.02 | C=C1CCC(=Cc2ccccc2O)C1=O [Example 24, 2-methylene-5-(2-hydroxybenzylidene)cyclopentanone] |  |
| 7.49 | 4.36 | C=C1CCC(=C(c2ccc(C)cc2)c2ccc(C)cc2)C1=O [Example 26, 2-methylene-5-[bis(4-methylphenyl)-methylene]cyclopentanone] |  |
| > 16 | 7.23 | C=C1CCC(=C(c2ccccc2)c2ccccc2)C1=O [Example 25, 2-methylene-5-diphenylmethylenecyclopentanone] |  |
| > 16 | > 16 | C=C1CCC(=Cc2cccc(OC)c2OC)C1=O [Example 15, 2-methylene-5-(2,3-dimethoxybenzylidene)cyclopentanone] |  |
|  |  | C=C1CCC(=Cc2ccc(N(C)C)cc2)C1=O [Example 11, 2-methylene-5-(4-N,N-dimethylbenzylidene)cyclopentanone] | IC50 [1]: 8.58 µmol/L; IC50 [2]: 1.4 µmol/L |
| 6.68 | 4.89 | C=C1CCC(=Cc2ccc3c(c2)OCO3)C1=O [Example 18, 2-methylene-5-(3,4-methylenedioxybenzylidene)cyclopentanone] |  |
| 2.57 | 2.66 | C=C1CCC(=Cc2ccc(OC)c(OC)c2)C1=O [Example 17, 2-methylene-5-(3,4-dimethoxybenzylidene)cyclopentanone] |  |
| 14.8 | 5.31 | C=C1CCC(=Cc2cc(C(C)(C)C)c(O)c(C(C)(C)C)c2)C1=O [Example 20, 2-methylene-5-[3,5-di(t-butyl)-4-hydroxybenzylidene]-cyclopentanone] |  |
| 7.51 | > 16 | C=C1CCC(=Cc2ccc(OC)cc2OC)C1=O [Example 16, 2-methylene-5-(2,4-dimethoxybenzylidene)cyclopentanone] |  |
|  |  | C=C1CCC(=C(c2ccc(F)cc2)c2ccc(F)cc2)C1=O [Example 27, 2-methene-5-[bis(4-fluorophenyl)-methylene]cyclopentanone] | IC50 [1]: > 16 µmol/L |
| 3.44 | 2.82 | C=C1CCC(=Cc2cc(OC)c(O)c(OC)c2)C1=O [Example 19, 2-methylene-5-(3,5-dimethoxy-4-hydroxybenzylidene) cyclopentanone] |  |
| 4.68 | 1.29 | C=C1CCC(=Cc2ccc(OC)cc2O)C1=O [Example 12, 2-methylene-5-(2-hydroxy-4-methoxybenzylidene)cyclopentanone] |  |
| > 16 | > 16 | C=C1CCC(=CCC(C)C)C1=O [Example 22, 2-methylene-5-(3-methylbutylidene)cyclopentanone] |  |
| 11.6 | 3.93 | C=C1CCC(=Cc2ccccc2OC)C1=O [Example 7, 2-methylene-5-(2-methoxybenzylidene)cyclopentanone] |  |
| 7.84 | 2.76 | C=C1CCC(=Cc2cc(OC)c(OC)c(OC)c2)C1=O [Example 21, 2-methylene-5-(3,4,5-trimethoxybenzylidene)cyclopentanone] |  |
| > 16 | > 16 | C=C1CCC(=Cc2ccc(OC)cc2)C1=O [Example 2, 2-methylene-5-(4-methoxybenzylidene)-cyclopentanone] |  |
| 4.57 | 6.37 | C=C1CCC(=Cc2ccc(OCC)cc2)C1=O [Example 8, 2-methylene-5-(4-ethoxybenzylidene)cyclopentanone] |  |
| 4.96 | 1.64 | C=C1CCC(=Cc2ccc(S(C)(=O)=O)cc2)C1=O [Example 10, 2-methylene-5-(4-methanesulfonylbenzylidene)cyclopentanone] |  |
| > 16 | > 16 | C=C1CCC(=Cc2ccc(OCCC)cc2)C1=O [Example 9, 2-methylene-5-(4-propoxybenzylidene)cyclopentanone] |  |
| 5.96 | > 16 | C=C1CCC(=Cc2ccc(O)cc2)C1=O [Example 23, 2-methylene-5-(4-hydroxybenzylidene)cyclopentanone] |  |

| Structure (SMILES) | IC50 ([1]; Homo sapiens, MDA-MB-231, 96 h) [µmol/L] | IC50 ([2]; Homo sapiens, 96 h) [µmol/L] | further results |
| --- | --- | --- | --- |
| C=C1CCC(=Cc2ccc(OC)c(O)c2)C1=O [Example 13, 2-methylene-5-(3-hydroxy-4-methoxybenzylidene)cyclopentanone] | 2.53 | 0.64 | IC50 [3]: 1.21 µmol/L; IC50 [4]: 2.01 µmol/L; IC50 [5]: 3.42 µmol/L; IC50 [6]: 2.95 µmol/L; IC50 [7]: 5.09 µmol/L; LD50 at 1 week (Acute toxicity test): 22.4 mg/kg |
| C=C1CCC(=Cc2ccc(O)c(OC)c2)C1=O [Example 14, 2-methylene-5-(4-hydroxy-3-methoxybenzylidene)cyclopentanone] | 3.21 | 0.98 | IC50 [3]: 1.05 µmol/L; IC50 [4]: 1.76 µmol/L; IC50 [5]: 4.4 µmol/L; IC50 [6]: 2.43 µmol/L; IC50 [7]: 6.39 µmol/L; LD50 at 1 week (Acute toxicity test): 35.2 mg/kg |
